Data taken from article PMC7434893 (British Journal of Cancer, 2020).
“Also recorded” adds a separate entry of the source.

How the values were obtained:
[1] = test system: PARP; experiment: PARP inhibition by PAR levels in PBMCs (ELISA); assay type: in vivo, human
Protocol: Inhibition of PARP activity was measured by quantifying PAR in PBMCs using an enzyme-linked immunosorbent assay (HT PARP in vivo Pharmacodynamic Assay II kit). PAR levels in PBMCs and the percentage change from baseline were summarised by dose and nominal sampling time point.

[2] = 2-compartment pharmacokinetic model; assay type: in vivo, human; conditions: model estimate
Excerpt: In the second stage, the final parameters from the pharmacokinetic model were fixed for sequential PK/PD modelling.

[3] = test system: advanced solid tumours; experiment: Tumour response by RECIST 1.1; assay type: in vivo, human
Protocol: Tumour assessments (computed tomography, magnetic resonance imaging, photographs and bone scans, as suitable for tumour type), based on Response Evaluation Criteria in Solid Tumors version 1.1, were performed at screening and subsequently every 8 weeks until disease progression.

[4] = test system: sIL-2Rα/CD25; experiment: Serum biomarker analysis, sIL-2Rα; assay type: in vivo, human; conditions: from 48 h onwards, all dose groups
Protocol: (§1) Two pre-dose, multiple post-dose and off-treatment time points were included. Serum samples were tested for concentrations of soluble vascular endothelial growth factor receptor (VEGFR)2, VEGFR3 and soluble interleukin-2 receptor α (sIL-2Rα/CD25), using the bead-based Human Soluble Cytokine Receptor Panel assay kit. The two baseline samples (days −3 and −2 prior to dosing) were averaged, and the mean was used to calculate percent change at each of the post-dosing time points.

[5] = test system: sVEGFR3; experiment: Serum biomarker analysis, sVEGFR3; assay type: in vivo, human; conditions: data not shown
Protocol: as §1

[6] = test system: HCC1806; experiment: 8-day growth inhibition; assay type: cell-based; conditions: Breast, HCC1806, 8-day assay
[7] = test system: MCF-7; experiment: 8-day growth inhibition; assay type: cell-based; conditions: Breast, MCF-7, 8-day assay
[8] = test system: BT-20; experiment: 8-day growth inhibition; assay type: cell-based; conditions: Breast, BT-20, 8-day assay
[9] = test system: HCT-116; experiment: 8-day growth inhibition; assay type: cell-based; conditions: Colon, HCT-116, 8-day assay
[10] = test system: HepG2; experiment: 8-day growth inhibition; assay type: cell-based; conditions: HCC, HepG2, 8-day assay
[11] = test system: SNU-423; experiment: 8-day growth inhibition; assay type: cell-based; conditions: HCC, SNU-423, 8-day assay
[12] = test system: SNU-182; experiment: 8-day growth inhibition; assay type: cell-based; conditions: HCC, SNU-182, 8-day assay
[13] = test system: HEC-6; experiment: 8-day growth inhibition; assay type: cell-based; conditions: Endometrial, HEC-6, 8-day assay
[14] = test system: SNG-M; experiment: 8-day growth inhibition; assay type: cell-based; conditions: Endometrial, 8-day assay
[15] = test system: SNG-ll; experiment: 8-day growth inhibition; assay type: cell-based; conditions: Endometrial, 8-day assay
[16] = test system: HEC-1A; experiment: 8-day growth inhibition; assay type: cell-based; conditions: Endometrial, 8-day assay
[17] = test system: NCI-H211; experiment: 8-day growth inhibition; assay type: cell-based; conditions: SCLC, NCI-H211, 8-day assay
[18] = test system: NCI-H524; experiment: 8-day growth inhibition; assay type: cell-based; conditions: SCLC, NCI-H524, 8-day assay
[19] = test system: IM-9; experiment: 8-day growth inhibition; assay type: cell-based; conditions: B lymphoblast, IM-9, 8-day assay
[20] = test system: RL; experiment: 8-day growth inhibition; assay type: cell-based; conditions: NHL B cell lymphoma, 8-day assay
[21] = test system: Namalwa; experiment: 8-day growth inhibition; assay type: cell-based; conditions: Burkitt's lymphoma, 8-day assay
[22] = test system: HT; experiment: 8-day growth inhibition; assay type: cell-based; conditions: DLBCL (GC), 8-day assay
[23] = test system: Jeko-1; experiment: 8-day growth inhibition; assay type: cell-based; conditions: MCL, Jeko-1, 8-day assay
[24] = test system: JVM-2; experiment: 8-day growth inhibition; assay type: cell-based; conditions: MCL, JVM-2, 8-day assay
[25] = test system: Mino; experiment: 8-day growth inhibition; assay type: cell-based; conditions: MCL, 8-day assay
[26] = test system: KG-1; experiment: 8-day growth inhibition; assay type: cell-based; conditions: AML, KG-1, 8-day assay

O=c1[nH]nc2c3c(cccc13)N=C(CN1Cc3ccccc3C1)N2 [E7449]
Time of maximal decrease in PAR levels after administration ([1]; 600 mg, fasted cohort): 2 to 4 h | Time of maximal decrease in PAR levels post treatment ([1]; 600 mg, fed cohort): 4 to 8 h | Decrease in PAR levels ([1]; 24-h post-dose time points (cycle 1, days 1, 7, 8 and 16)): ≥ 70% | Population mean PARP inhibition ([1]; MTD 600 mg once daily, steady state, PAR in PBMCs): approximately 90% | Inhibition in PAR levels from baseline ([1]; food-effect cohorts, 600 mg): up to 90% | k12 ([2]; central to peripheral compartment): 0.21 h⁻¹ | V/F, apparent volume of distribution for the central compartment ([2]; all doses fitted): 149.7 L | ka, absorption rate constant ([2]; all doses fitted): 0.82 h⁻¹ | ke, first-order elimination rate constant ([2]; all doses fitted): 0.51 h⁻¹ | k21 ([2]; peripheral to central compartment): 0.27 h⁻¹ | ORR in patients with germline-mutated BRCA ([3]; 1/6): 16.7% | Objective response rate (ORR) ([3]; 2/41, all cohorts): 4.9% | Patients with BRCA mutations with partial response or stable disease ([3]; 3/6): 50% | Best overall response of stable disease, patients ([3]; 13 of 41 patients): 31.7% | Median duration of stable disease ([3]; 13 patients): 162 days | Best Overall Response to E7449 ([3]; BRCA-mutated patient, platinum naïve, breast): Progressive Disease | Best Overall Response to E7449 ([3]; BRCA-mutated patient, platinum naïve, pancreas): Stable Disease | Best Overall Response to E7449 ([3]; BRCA-mutated patient, platinum resistant, breast): Progressive Disease | Best Overall Response to E7449 ([3]; BRCA-mutated patients, platinum sensitive, ovary (one line per patient)): Stable Disease; also recorded: Partial Response; also recorded: Progressive Disease | Patients with durable (>23 weeks) stable disease ([3]; of 13 patients with SD): 8 | Patients with a decrease in target lesion size ([3]; of the 35 patients evaluated for best overall response): 13 | Partial responses, patients ([3]; ovarian cancer, 1 each in 600-mg and 800-mg cohorts): 2 | sIL-2Rα change above baseline [4]: up to 150% | Change in serum concentration of sVEGFR3 from baseline [5]: No significant changes | IC50 [6]: 1800 nM | IC50 [7]: 1900 nM | IC50 [8]: 7900 nM | IC50 [9]: 1700 nM | IC50 [10]: 3800 nM | IC50 [11]: 19000 nM | IC50 [12]: 5400 nM | IC50 [13]: 1880 nM | IC50 [14]: 1360 nM | IC50 [15]: 5260 nM | IC50 [16]: 2960 nM | IC50 [17]: 480 nM | IC50 [18]: 690 nM | IC50 [19]: 2100 nM | IC50 [20]: 2500 nM | IC50 [21]: 2500 nM | IC50 [22]: 660 nM | IC50 [23]: 1900 nM | IC50 [24]: 14000 nM | IC50 [25]: 3400 nM | IC50 [26]: 2000 nM
